The record followed here is US8071506B2, “Synergistic herbicidal composition containing florasulam for weed control in turf” (Dow AgroSciences LLC, priority 2009, dated 2011).

The structures appear in SMILES notation.

What all share (assay): Field study of weed control in established turfgrass, percent control from visual weed cover
For one assay, the system named is White Clover (TRFRE). In kind it is in vivo, Trifolium repens. The settings on record: for Observed percent control: Florasulam GR 15 g ai/ha. The protocol:
(§1) Field studies were conducted in established turfgrass sites containing a natural population of target broadleaf weeds. Replicated trials, containing a minimum of three replications and having individual plots ranging in size from 25 to 50 ft. sq, were initiated in the early spring with turf and weeds still in dormancy or just beginning active growth. Studies containing two components (florasulam and dithiopyr or pendimethalin) were timed to coincide with typical preemergent crabgrass (Digitaria sp.) timing at the study location. Studies containing three components (florasulam, dithiopyr or pendimethalin, Trimec (2,4-D+dicamba+MCPP-p) or Scotts Plus 2 (2,4-D+MCPP-p) were timed as previous for the florasulam and dithiopyr or pendimethalin components followed by an application of Trimec or Scotts Plus 2 at peak dandelion bloom which occurs approximately six weeks after a typical preemergent application. Granule treatments were uniformly applied to individual plots using a common hand-shaker or shaker table method. Liquid applications were applied with a CO2 backpack sprayer calibrated to deliver 40 to 100 GPA at 40 to 60 PSI. Applications were generally made in the early morning when dew was present. Natural rainfall and supplemental irrigation were used to maintain healthy turf and active weed growth throughout the study period. Weed control evaluations were made by visually assessing percent weed cover of each weed species in each plot at the initiation of the study and at each evaluation interval, converting to percent control using the following formula: (1−(B/A))*100
(§2) A=percent weed cover at study initiation
(§3) B=percent weed at a specific evaluation interval after application
(§4) Using this method, control ranges occur between 0 and 100 percent where 0 corresponds to no control and 100 corresponds to complete kill. Percent cover of each weed species was made at approximately 2, 4 and 8 weeks after treatment.
(§5) The following equation was used to calculate the expected activity of mixtures containing two active ingredients, A and B: Expected=A+B−(A×B/100)
(§6) A=observed efficacy of active component A at the same concentration as used in the mixture.
(§7) B=observed efficacy of active component B at the same concentration as used in the mixture.
(§8) The following equation was used to calculate the expected activity of mixtures containing three active ingredients, A and B and C: Expected=A+B+C−((A×B)+(A×C)+(B×C)/100)+(A×B×C/10,000)
(§9) C=observed efficacy of active component C at the same concentration as used in the mixture.

The subject of another assay is Dandelion (TAROF). Format: in vivo, Taraxacum officinale. The procedure: as §1, §2, §3, §4, §5, §6, §7, §8, §9
For assay [1], the system named is Buckhorn Plantain (PLALA). In kind it is in vivo, Plantago lanceolata. The note with it: 27 DAT in turf; Pendimethalin GR 2300 g ai/ha, Florasulam GR 15 g ai/ha. The procedure: as §1, with “Weed control evaluations were made by visually assessing percent weed cover of each weed species in each plot at the initiation of the study and at each evaluation interval, converting to percent control using the following formula: (1−(B/A))*100” left out

The mark [2] stands for this setting: 28 DAT in turf, Dithiopyr GR 575 g ai/ha.
The mark [3] stands for this setting: 36 DAT in turf, Dithiopyr GR 575 g ai/ha.
Setting [4] is: 62 DAT in turf, Dithiopyr GR 575 g ai/ha.
Setting [5] is: 36 DAT in turf, Dithiopyr GR 575 g ai/ha, Florasulam GR 15 g ai/ha.
Setting [6] is: 56 DAT in turf, Dithiopyr GR 575 g ai/ha, Florasulam GR 15 g ai/ha.
Setting [7] is: 57 DAT in turf, Dithiopyr GR 575 g ai/ha, Florasulam GR 15 g ai/ha, Trimec EC 4 Pt/A.
[8] abbreviates: 58 DAT in turf, Dithiopyr 2EW 575 g ai/ha, Florasulam SC 15 g ai/ha.
[9] abbreviates: 59 DAT in turf, Dithiopyr GR 575 g ai/ha, Florasulam GR 15 g ai/ha, Trimec EC 4 Pt/A.
[10] abbreviates: 64 DAT in turf, Dithiopyr GR 575 g ai/ha, Florasulam GR 15 g ai/ha, Trimec EC 4 Pt/A.
Where [11] appears, read: 91 DAT in turf, Dithiopyr GR 575 g ai/ha, Florasulam GR 15 g ai/ha.
The mark [12] stands for this setting: 55 DAT in turf, Pendimethalin GR 2300 g ai/ha, Scotts Plus 2 125 Lb/A.
The mark [13] stands for this setting: applications made at the preemergent herbicide application timing.
Where [14] appears, read: 60 DAT in turf, Pendimethalin GR 2300 g ai/ha, Florasulam GR 15 g ai/ha, Scotts Plus 2 125 Lb/A.

Consider `CSC(=O)c1c(C(F)F)nc(C(F)(F)F)c(C(=O)SC)c1CC(C)C` [Dithiopyr, S,S′-dimethyl 2-(difluoromethyl)-4-(2-methylpropyl)-6-(trifluoromethyl)-3,5-pyridinedicarbothioate], for which the Observed percent control in the assay on White Clover (TRFRE) (setting [2]) worked out at 0%; in the assay with White Clover (TRFRE) (setting [3]), 0%; with White Clover (TRFRE) (setting [4]), 0%; with Dandelion (TAROF) (setting [5]) it was 0%; with Dandelion (TAROF) (setting [6]), 29%; in the assay with Dandelion (TAROF) (setting [7]), 21%. For the same compound, the Observed percent control stood at 21.7% in the assay on Dandelion (TAROF) (setting [8]), 27% with Dandelion (TAROF) (setting [9]), 0% with Dandelion (TAROF) (setting [10]) and 19% in the assay on Dandelion (TAROF) (setting [11]).

As for `COc1ncc(F)c2nc(S(=O)(=O)Nc3c(F)cccc3F)nn12` [Florasulam, N-(2,6-difluorophenyl)-8-fluoro-5-methoxyl[1,2,4]triazolo[1,5-c]pyrimidine-2-sulfonamide], the Observed percent control in assay [1] is 26.7%; with White Clover (TRFRE) (setting [2]) it was 86.8%; in the assay with White Clover (TRFRE) (setting [3]) it was 73%; in the assay on White Clover (TRFRE) (setting [12]), 62.5%; with White Clover (TRFRE) (setting [4]) it was 0%; in the assay with Dandelion (TAROF) (setting [5]), 20%. Besides, the Observed percent control in the assay on Dandelion (TAROF) (setting [6]) came to 0%; in the assay on Dandelion (TAROF) (setting [7]), 31%; in the assay with Dandelion (TAROF) (setting [8]), 70%; in the assay on Dandelion (TAROF) (setting [9]) it was 0%; with Dandelion (TAROF) (setting [14]), 20.6%; in the assay on Dandelion (TAROF) (setting [10]), 30%. In addition, in the assay with Dandelion (TAROF) (setting [11]), the Observed percent control turned out to be 18%. In the assay on White Clover (TRFRE) (setting [13]), the “Control of white clover, in words” value is listed as “effectively controls”. Also, in the assay with Dandelion (TAROF) (setting [13]), the “Control of dandelion, in words” value is “effectively controls”.

As to `CCC(CC)Nc1c([N+](=O)[O-])cc(C)c(C)c1[N+](=O)[O-]` [Pendimethalin, N-(1-ethylpropyl)-3,4-dimethyl-2,6-dinitrobenzenamine], the Observed percent control in assay [1] was determined as 0%; in the assay with White Clover (TRFRE) (setting [12]), 0%; with Dandelion (TAROF) (setting [14]), 21%.
